As a reminder, the IC50 is the concentration needed to halve the response being measured. A higher IC50 goes with weaker potency.

Each structure is given as a SMILES string. Counter-ions that a name gives are not always drawn.

In the first experiment the test system is 293T-HRE-GFP-luc cells. The experiment can be described thus: Cell-based reporter assay for IC50 determinations (HRE-luciferase, hypoxia). The following applies: 6 h, 6 hrs hypoxia (1% O2), luminescence. In short, it runs like this:
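293T-HRE-GFP-luc cells were pre-incubated with serially diluted compounds for 30 min under normoxia, then held 6 hrs in hypoxia (1% O2, 37° C). HRE-driven luciferase read by Steadylite Plus luminescence; IC50 from four-parameter logistic fit.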
`CS(=O)(=O)C1CCN(c2cc(Cn3cc(-c4nc(-c5ccc(OC(F)(F)F)cc5)no4)ccc3=O)ccn2)CC1` [Example 175, 1-{[2-(4-methanesulfonylpiperidin-1-yl)pyridin-4-yl]methyl}-5-{3-[4-(trifluoromethoxy)phenyl]-1,2,4-oxadiazol-5-yl}-1,2-dihydropyridin-2-one] gave an IC50 of under 100 nM.

Consider `CN1CCN(c2cccc(Cn3cc(-c4nc(-c5ccc(OC(F)(F)F)cc5)no4)ccc3=O)c2)CC1=O` [Example 169, 1-methyl-4-{3-[(2-oxo-5-{3-[4-(trifluoromethoxy)phenyl]-1,2,4-oxadiazol-5-yl}-1,2-dihydropyridin-1-yl)methyl]phenyl}piperazin-2-one], for which the IC50 is under 100 nM.

As to `COCCOc1cccc(Cn2cc(-c3noc(-c4cnc(OCC(C)C)nc4)n3)ccc2=O)c1` [Example 87, 5-(5-(2-Isobutoxypyrimidin-5-yl)-1,2,4-oxadiazol-3-yl)-1-(3-(2-methoxyethoxy)benzyl)pyridin-2(1H)-one], the half-inhibitory concentration (IC50) was under 100 nM.

As to `COCCOc1cccc(Cn2cc(-c3noc(-c4ccc(C(C)(C)COC)cc4)n3)ccc2=O)c1` [Example 72, 15-(5-(4-(1-Methoxy-2-methylpropan-2-yl)phenyl)-1,2,4-oxadiazol-3-yl)-1-(3-(2-methoxyethoxy)benzyl)pyridin-2(1H)-one], the IC50 is under 100 nM.

In turn, `CC(C)Oc1ccc(-c2nc(-c3ccc(=O)n(Cc4cccc(OCCCS(C)(=O)=O)c4)c3)no2)cc1` [Example 206, 1-{[3-(3-methanesulfonylpropoxy)phenyl]methyl}-5-{5-[4-(propan-2-yloxy)phenyl]-1,2,4-oxadiazol-3-yl}-1,2-dihydropyridin-2-one] gave an IC50 of under 100 nM.

`O=c1ccc(-c2nc(-c3ccc(OC(F)(F)F)cc3)no2)cn1Cc1cccc(CO)c1` [Example 43, 1-{[3-(Hydroxymethyl)phenyl]methyl}-5-{3-[4-(trifluoromethoxy)phenyl]-1,2,4-oxadiazol-5-yl}-1,2-dihydropyridin-2-one] gave an IC50 of under 100 nM.

As for `C#CCCCC(=O)N1CCN(c2cccc(Cn3cc(-c4nc(-c5ccc(OC(F)(F)F)cc5)no4)ccc3=O)c2)CC1` [Example 180], the IC50 is under 100 nM.

`Cc1ccc(-c2nc(-c3ccc(OC(F)(F)F)cc3)no2)c(=O)n1Cc1ccnc(N2CCOCC2)c1` [Example 18, 4-((6-Methyl-2-oxo-3-(3-(4-(trifluoromethoxy)phenyl)-1,2,4-oxadiazol-5-yl)pyridin-1(2H)-yl)methyl)-2-morpholinopyridin-1-ium trifluoroacetate]: the concentration for half-maximal inhibition (IC50) is under 100 nM.

In turn, `CC(C)=Cc1cccc(Cn2cc(-c3nc(-c4ccc(OC(F)(F)F)cc4)no3)ccc2=O)c1` [Example 56, 1-(3-(2-methylprop-1-enyl)benzyl)-5-(3-(4-(trifluoromethoxy)phenyl)-1,2,4-oxadiazol-5-yl)pyridin-2(1H)-one] showed an IC50 of under 100 nM.

In turn, `O=c1ccc(-c2nc(-c3ccc(OC(F)(F)F)cc3)no2)nn1Cc1ccc(F)c(Br)c1` [Example 108, 2-(3-bromo-4-fluorobenzyl)-6-(3-(4-(trifluoromethoxy)phenyl)-1,2,4-oxadiazol-5-yl)pyridazin-3(2H)-one] yielded an IC50 of 100 to 1000 nM.

On to `Cc1ccc(-c2nc(-c3ccc(OC(F)(F)F)cc3)no2)c(=O)n1Cc1cccc(OC(F)F)c1` [Example 266, 1-{[3-(difluoromethoxy)phenyl]methyl}-6-methyl-3-{3-[4-(trifluoromethoxy)phenyl]-1,2,4-oxadiazol-5-yl}-1,2-dihydropyridin-2-one], for which the 50% inhibitory concentration (IC50) lay in the range of 100 to 1000 nM.

As for `O=c1ccc(-c2nc(-c3ccc(OC(F)(F)F)cc3)no2)cn1Cc1cccc(Br)c1` [Example 141, 1-[(3-bromophenyl)methyl]-5-{3-[4-(trifluoromethoxy)phenyl]-1,2,4-oxadiazol-5-yl}-1,2-dihydropyridin-2-one], the IC50 was 100 to 1000 nM.

As for `COCCOc1cccc(Cn2cc(-c3noc(-c4ccc(S(=O)(=O)C(F)(F)F)cc4)n3)ccc2=O)c1` [Example 187, 1-{[3-(2-methoxyethoxy)phenyl]methyl}-5-[5-(4-trifluoromethanesulfonylphenyl)-1,2,4-oxadiazol-3-yl]-1,2-dihydropyridin-2-one], the IC50 was under 100 nM.

As for `O=c1ccc(-c2nc(-c3ccc(OC(F)(F)F)cc3)no2)nn1Cc1cccc(O)c1` [Example 174, 2-[(3-hydroxyphenyl)methyl]-6-{3-[4-(trifluoromethoxy)phenyl]-1,2,4-oxadiazol-5-yl}-2,3-dihydropyridazin-3-one], the IC50 lay within 100 to 1000 nM.

Compound `Cc1ccc(-c2nc(-c3ccc(OC(F)(F)F)cc3)no2)c(=O)n1Cc1ccnc(N2CCCC2)c1` [Example 16, 4-((6-methyl-2-oxo-3-(3-(4-(trifluoromethoxy)phenyl)-1,2,4-oxadiazol-5-yl)pyridin-1(2H)-yl)methyl)-2-(pyrrolidin-1-yl)pyridin-1-ium trifluoroacetate] displayed an IC50 of under 100 nM.

The compound `COCCOc1cccc(Cn2cc(-c3noc(-c4ccc(C5CCCCC5)cc4)n3)ccc2=O)c1` [Example 84, 5-(5-(4-Cyclohexylphenyl)-1,2,4-oxadiazol-3-yl)-1-(3-(2-methoxyethoxy)benzyl)pyridin-2(1H)-one] had a 50% inhibitory concentration (IC50) of under 100 nM.

As to `COCCOc1cccc(Cn2cc(-c3noc(-c4ccc(Cl)cc4)n3)ccc2=O)c1` [Example 198, 5-[5-(4-chlorophenyl)-1,2,4-oxadiazol-3-yl]-1-{[3-(2-methoxyethoxy)phenyl]methyl}-1,2-dihydropyridin-2-one], the IC50 was under 100 nM.

Compound `CS(=O)(=O)CCCOc1cccc(Cn2cc(-c3nnc(-c4ccc(OC(F)F)cc4)o3)ccc2=O)c1` [Example 262, 5-{5-[4-(difluoromethoxy)phenyl]-1,3,4-oxadiazol-2-yl}-1-{[3-(3-methanesulfonylpropoxy)phenyl]methyl}-1,2-dihydropyridin-2-one] gave an IC50 of under 100 nM.

As for `CN(C)C(=O)COc1cccc(Cn2cc(-c3nc(-c4ccc(OC(F)(F)F)cc4)no3)ccc2=O)c1` [Example 149, N,N-dimethyl-2-{3-[(2-oxo-5-{3-[4-(trifluoromethoxy)phenyl]-1,2,4-oxadiazol-5-yl}-1,2-dihydropyridin-1-yl)methyl]phenoxy}acetamide], the half-maximal inhibitory concentration (IC50) is under 100 nM.

The compound `CN1CCN(c2cccc(Cn3cc(-c4nnc(-c5ccc(OC(F)(F)F)cc5)o4)ccc3=O)c2)CC1` [Example 100, 1-Methyl-4-(3-((2-oxo-5-(5-(4-(trifluoromethoxy)phenyl)-1,3,4-oxadiazol-2-yl)pyridin-1(2H)-yl)methyl)phenyl)piperazin-1-ium 2,2,2-trifluoroacetate] displayed an IC50 of under 100 nM.

The compound `COCCOc1cccc(Cn2cc(-c3noc(-c4cnc(N5CCS(=O)(=O)CC5)nc4)n3)ccc2=O)c1` [Example 250, 5-(5-(2-(1,1-dioxidothiomorpholino)pyrimidin-5-yl)-1,2,4-oxadiazol-3-yl)-1-(3-(2-methoxyethoxy)benzyl)pyridin-2(1H)-one] came in with an IC50 of 100 to 1000 nM.

`COCCOc1cccc(Cn2cc(-c3noc(-c4ccc(S(=O)(=O)CC(C)C)cc4)n3)ccc2=O)c1` [Example 233, 1-{[3-(2-methoxyethoxy)phenyl]methyl}-5-{5-[4-(2-methylpropanesulfonyl)phenyl]-1,2,4-oxadiazol-3-yl}-1,2-dihydropyridin-2-one]: the IC50 was under 100 nM.

`COCCOc1cccc(Cn2cc(-c3noc(-c4ccc(C(C)C)cc4)n3)ccc2=O)c1` [Example 195, 1-{[3-(2-methoxyethoxy)phenyl]methyl}-5-{5-[4-(propan-2-yl)phenyl]-1,2,4-oxadiazol-3-yl}-1,2-dihydropyridin-2-one]: the IC50 is under 100 nM.

Regarding `Cc1ccc(-c2nnc(-c3ccc(OC(F)(F)F)cc3)o2)c(=O)n1Cc1ccnc(N2CCN(C)CC2)c1` [Example 21, 6-methyl-1-((2-(4-methylpiperazin-1-yl)pyridin-4-yl)methyl)-3-(5-(4-(trifluoromethoxy)phenyl)-1,3,4-oxadiazol-2-yl)pyridin-2(1H)-one], the IC50 was in the range of 1000 to 10000 nM.

As to `COCCOc1cccc(Cn2cc(-c3noc(-c4ccc(S(=O)(=O)CC#N)cc4)n3)ccc2=O)c1` [Example 85, 2-(4-(3-(1-(3-(2-Methoxyethoxy)benzyl)-6-oxo-1,6-dihydropyridin-3-yl)-1,2,4-oxadiazol-5-yl)phenylsulfonyl)acetonitrile], the IC50 fell in the range of 100 to 1000 nM.

With `N#CC1CCN(c2cc(Cn3cc(-c4nc(-c5ccc(OC(F)(F)F)cc5)no4)ccc3=O)ccn2)CC1` [Example 153, 1-{4-[(2-oxo-5-{3-[4-(trifluoromethoxy)phenyl]-1,2,4-oxadiazol-5-yl}-1,2-dihydropyridin-1-yl)methyl]pyridin-2-yl}piperidine-4-carbonitrile], the IC50 was under 100 nM.

Consider `CN1CCN(C(=O)c2cc(Cn3nc(-c4nc(-c5ccc(OC(F)(F)F)cc5)no4)ccc3=O)ccn2)CC1` [Example 125, 2-((2-(4-methylpiperazine-1-carbonyl)pyridin-4-yl)methyl)-6-(3-(4-(trifluoromethoxy)phenyl)-1,2,4-oxadiazol-5-yl)pyridazin-3(2H)-one], for which the IC50 lay in the range of 1000 to 10000 nM.

`CN1CCN(c2cc(Cn3cc(-c4cc(-c5ccc(OC(F)(F)F)cc5)no4)ccc3=O)ccn2)CC1` [Example 97b, 1-((2-(4-methylpiperazin-1-yl)pyridin-4-yl)methyl)-5-(3-(4-(trifluoromethoxy)phenyl)isoxazol-5-yl)pyridin-2(1H)-one]: the IC50 was under 100 nM.

Consider `CN1CCN(c2cccc(Cn3cc(-c4nc(-c5ccc(SC(F)(F)F)cc5)no4)ccc3=O)c2)CC1` [Example 185, 1-{[3-(4-methylpiperazin-1-yl)phenyl]methyl}-5-(3-{4-[(trifluoromethyl)sulfanyl]phenyl}-oxadiazol-5-yl)-1,2-dihydropyridin-2-one], for which the IC50 is under 100 nM.

The experiment is the same for the next values; noted with them: 6 hrs hypoxia (1% O2), luminescence.
Compound `O=c1ccc(-c2nc(-c3ccc(OC(F)(F)F)cc3)no2)cn1Cc1cccc(OCC(O)CO)c1` (single isomer, unassigned) [Example 55b, (2S)- or (2R)-1-(3-(2,3-dihydroxypropoxy)benzyl)-5-(3-(4-(trifluoromethoxy)phenyl)-1,2,4-oxadiazol-5-yl)pyridin-2(1H)-one] showed an IC50 of under 100 nM.

Source of the values: patent publication US20140073634A1 (Institute For Applied Cancer Science/The University of …, priority 2012, published 2014).
